In PMC5829162, “Rational Design, Synthesis and Biological Evaluation of Pyrimidine-4,6-diamine derivatives as Type-II inhibitors of FLT3 Selective Against c-KIT” (Scientific Reports, 2018):
Read-outs that look alike come from different tables or passages of the source.

What was measured:
[1] = molecular target: c-KIT (Homo sapiens, UniProt P10721); assay: Biochemical kinase selectivity assay, c-KIT
[2] = molecular target: T1, FLT3 kinase (Homo sapiens, UniProt P36888); assay: Mechanism of inhibition (pre-incubation time and ATP concentration), FLT3; assay type: biochemical
T1 construct: purchased Invitrogen
T1 sequence (P36888 27-993): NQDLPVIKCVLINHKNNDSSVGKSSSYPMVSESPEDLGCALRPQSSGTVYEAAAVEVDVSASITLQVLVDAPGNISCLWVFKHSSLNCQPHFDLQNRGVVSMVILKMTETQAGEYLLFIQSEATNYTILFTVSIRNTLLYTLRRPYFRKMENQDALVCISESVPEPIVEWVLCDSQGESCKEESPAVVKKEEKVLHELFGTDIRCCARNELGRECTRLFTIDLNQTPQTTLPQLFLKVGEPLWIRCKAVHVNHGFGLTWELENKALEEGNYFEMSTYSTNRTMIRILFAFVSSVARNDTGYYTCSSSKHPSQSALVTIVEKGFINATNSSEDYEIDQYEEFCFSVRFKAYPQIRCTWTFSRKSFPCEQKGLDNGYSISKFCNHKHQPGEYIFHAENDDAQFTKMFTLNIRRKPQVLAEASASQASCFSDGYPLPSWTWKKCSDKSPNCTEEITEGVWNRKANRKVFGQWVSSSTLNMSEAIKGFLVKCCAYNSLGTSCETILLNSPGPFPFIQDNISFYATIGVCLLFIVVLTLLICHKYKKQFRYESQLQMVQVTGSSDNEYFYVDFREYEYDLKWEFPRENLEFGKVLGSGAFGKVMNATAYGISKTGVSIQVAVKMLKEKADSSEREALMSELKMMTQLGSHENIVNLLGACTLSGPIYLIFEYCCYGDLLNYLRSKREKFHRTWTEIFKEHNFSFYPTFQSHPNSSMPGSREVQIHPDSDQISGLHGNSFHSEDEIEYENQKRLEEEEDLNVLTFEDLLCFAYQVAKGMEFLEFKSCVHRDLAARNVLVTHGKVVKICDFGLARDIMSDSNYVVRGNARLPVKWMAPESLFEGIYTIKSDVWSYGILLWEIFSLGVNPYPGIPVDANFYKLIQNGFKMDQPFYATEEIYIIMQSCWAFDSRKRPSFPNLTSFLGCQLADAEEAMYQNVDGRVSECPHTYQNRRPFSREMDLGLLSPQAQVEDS
Protocol: Compound 13a was pre-incubated with the FLT3 kinase at 1, 3, 5, 10, 20, 30, 50, and 90 minutes. After the pre-incubation, IC50 values at each incubation interval was determined according to the procedure outlined in section 4.3. In a separate experiment, compound 13a was pre-incubated with the FLT3 kinase for 60 minutes. […] To determine IC50 values at each concentration of ATP, the same procedure was followed as outlined in section S10.
S10. Biochemical Inhibition Assay:1,2 Kinase activity was measured in a microfluidics assay that monitors the separation of a phosphorylated product from substrate. The assay was run using a 12-sipper chip on a Caliper EZ Reader II (PerkinElmer®, Walthman, USA) with separation buffer (100 mM HEPES, 10 mM EDTA, 0.015% Brij-35, 0.1% CR-3 [PerkinElmer®, Walthman, USA]). In 96-well polypropylene plates (Greiner, Frickenhausen, Germany) compound stocks (20 mM in DMSO) were diluted into kinase buffer (50 mM HEPES, 0.075% […]
dilutions (2 mM–6.32 nM). After, 1 μL was transferred into a 384-well polypropylene assay plate (Greiner, Frickenhausen, Germany). The FLT3 enzyme (Invitrogen™, Grand Island, USA) was diluted in kinase buffer to a concentration of 2 nM and 5 µL of the enzyme mixture was transferred to the assay plate. The inhibitors/FLT3 enzyme were incubated for 60 minutes with minor shaking. A substrate mix was prepared containing ATP (Ambresco®, Solon, USA) and 5FAM tagged FLT3 peptide (peptide #22, 5’ FAM-EPLYWSFPA, PerkinElmer®, Walthman, USA) dissolved in kinase buffer, and 5 µL of the substrate mix was added to the assay plate.
Running concentrations were as follows: ATP (190 µM), peptide (1.5 µM), compound 12-point ½log dilutions (0.2 mM–0.632 nM). For positive control, no inhibitor was added. For negative control, no enzyme was added. For running control, quizartinib was utilized. The plate was run until 10-20% conversion based on the positive control wells. The following separation conditions were utilized: upstream voltage -500V; downstream voltage, -1900V; chip pressure - 0.8. Percent inhibition was measured for each well comparing starting peptide to phosphorylated product peaks relative to the baseline. Dose response curves, spanning the IC50 dose, were generated in GraphPad Prisim 6 and fit to an exponential one-phase decay line and IC50 values were obtained from the half-life value of the curve. IC50 values were generated in duplicate and error was calculated from the standard deviation between values.
S11. Mechanism of Inhibition Procedure: Compound 13a was pre-incubated with the FLT3 kinase at 1, 3, 5, 10, 20, 30, 50, and 90 minutes. After the pre -incubation, IC50 values at each incubation interval was determined according to the procedure outlined in section 4.3. […]

Sequence of c-KIT (P10721 26-976): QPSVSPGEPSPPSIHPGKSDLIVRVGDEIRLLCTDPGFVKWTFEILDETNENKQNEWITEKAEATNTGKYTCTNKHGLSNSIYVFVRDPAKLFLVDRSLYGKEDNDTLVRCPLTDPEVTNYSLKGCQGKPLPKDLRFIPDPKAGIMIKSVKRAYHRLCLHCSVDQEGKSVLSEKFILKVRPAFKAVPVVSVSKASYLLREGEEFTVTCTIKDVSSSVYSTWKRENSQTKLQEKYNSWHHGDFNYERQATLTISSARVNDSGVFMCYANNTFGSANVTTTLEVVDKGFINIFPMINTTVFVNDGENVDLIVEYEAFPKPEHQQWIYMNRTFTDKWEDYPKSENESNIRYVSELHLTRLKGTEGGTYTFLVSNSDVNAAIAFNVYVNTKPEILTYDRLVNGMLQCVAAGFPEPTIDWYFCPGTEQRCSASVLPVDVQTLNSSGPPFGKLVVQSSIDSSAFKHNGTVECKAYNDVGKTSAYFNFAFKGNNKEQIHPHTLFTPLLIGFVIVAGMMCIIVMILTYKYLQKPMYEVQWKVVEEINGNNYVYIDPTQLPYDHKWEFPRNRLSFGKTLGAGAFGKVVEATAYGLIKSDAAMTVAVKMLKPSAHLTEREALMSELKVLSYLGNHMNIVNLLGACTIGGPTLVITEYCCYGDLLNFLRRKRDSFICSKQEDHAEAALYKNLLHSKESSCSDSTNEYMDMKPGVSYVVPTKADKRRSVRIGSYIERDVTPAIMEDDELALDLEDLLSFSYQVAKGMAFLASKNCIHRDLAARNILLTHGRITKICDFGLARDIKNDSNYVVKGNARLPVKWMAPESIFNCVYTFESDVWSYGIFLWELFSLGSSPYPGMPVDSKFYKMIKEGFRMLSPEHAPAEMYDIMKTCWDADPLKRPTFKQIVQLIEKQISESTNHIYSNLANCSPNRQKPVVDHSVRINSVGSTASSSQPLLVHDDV

With Cn1nc(C(C)(C)C)cc1NC(=O)Cc1ccc(Nc2cc(Nc3ccc(S(C)(=O)=O)cc3)ncn2)cc1 [13a, 2-(4-(6-(4-(Methylsulfonyl)phenylamino)pyrimidin-4-ylamino)phenyl)-N-(3-tert-butyl-1-methyl-1H-pyrazol-5-yl)acetamide] the IC50 ([1]; as printed in Fig. 2, read-out: cKit IC50) was 8800 nM, the IC50 ([1]; in vitro kinase assay, read-out: c-KIT IC50 (nM) ± SD) was 8800 nM and the “selectivity for FLT3 over c-KIT” value ([1]; in vitro kinase assays) was > 500 fold. The “effect of an increase in ATP concentration on FLT3 IC50” value ([2]; 5-160 µM ATP, 60 minutes pre-incubation, p > 0.05) was “did not cause a statistically significant increase”, the mechanism of inhibition ([2]; from pre-incubation and ATP variation studies) was “non-competitive, Type-II kinase inhibitor” and the “change of FLT3 IC50 from no incubation to a 90-minute pre-incubation” value ([2]; p < 0.05) was “statistically significant decrease”. For the same compound, the “pre-incubation required to reach maximal inhibition of the FLT3 kinase” value ([2]; pre-incubation 1-90 minutes) was “approximately 60 minutes”.
